Reference: US10344054B2, “Angiotensin-1-receptor antagonists” (Ferring B.V., priority 2016, dated 2019)
Starred links: 1 amine or outer side, 2 acyl side, 3 side chain; linkers in the order of their positions; H or OH if unused. Non-standard residues stand in square brackets, D forms with d. Residues, ends and D or L forms follow the SMILES beside them. X1 = O=C(CN(C[C@H](O)[C@@H](O)[C@H](O)[C@H](O)CO)[*:1])[*:2]; dPhe(2-Cl) = N[C@H](Cc1ccccc1Cl)C(=O)O; dPhe(2-Me) = Cc1ccccc1C[C@@H](N)C(=O)O; d1Nal = N[C@H](Cc1cccc2ccccc12)C(=O)O; Gly(cPent) = N[C@H](C(=O)O)C1CCCC1; Chg = N[C@H](C(=O)O)C1CCCCC1

Columns and labels:
[1] = target: T1, hAT1R (Homo sapiens, UniProt P30556); assay: FLIPR calcium flux assay, Part I: agonist activity; format: cell-based; details: ChanTest hAT1R stable cells; % MPE, percent of the maximal possible effect; read-out: hAT1R Agonist Efficacy Agonist (%) Ave
T1 sequence (P30556 1-359): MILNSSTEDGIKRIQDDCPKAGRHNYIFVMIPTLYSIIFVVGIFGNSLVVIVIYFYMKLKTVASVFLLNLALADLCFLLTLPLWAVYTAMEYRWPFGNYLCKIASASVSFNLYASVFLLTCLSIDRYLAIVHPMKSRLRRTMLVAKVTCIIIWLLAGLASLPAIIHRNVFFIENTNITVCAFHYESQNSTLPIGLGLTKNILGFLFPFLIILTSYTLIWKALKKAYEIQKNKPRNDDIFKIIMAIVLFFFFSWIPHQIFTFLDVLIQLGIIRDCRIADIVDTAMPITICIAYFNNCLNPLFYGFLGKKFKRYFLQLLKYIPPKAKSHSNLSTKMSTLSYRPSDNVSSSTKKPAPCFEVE
Method: (§1) AT1 receptor (AT1R) agonists increase intracellular flux of calcium ions. AT1R antagonists can reduce the agonist effect. […] Compounds were first tested for agonism (Part I) followed by addition of the AT1R agonist angiotensin II to test for antagonist activity (Part II). This assay used a stable hAT1R expressing cell line (ChanTest hAT1R; ChanTest Corp A628). Intracellular flux of calcium in response to agonist was measured through real-time measurement of fluorescence induced through the interaction of Ca2+ (released from intracellular stores) and calcium-sensitive dye. In Part I, cells were exposed to varying concentrations of test compounds and immediately measured for agonist activity (EC50 and Efficacy).
(§2) ChanTest hAT1R stable cells were maintained in Ham's F12 containing 10% (v/v) heat inactivated fetal bovine serum (FBS-HI), 4 mM Glutamax, 1% NEAA, 50 ng/mL plasmocin, 400 μg/mL G418 at 37° C. under 5% CO2 in a humidified atmosphere.
(§3) For FLIPR assay, ChanTest hAT1R cells were trypsinized with 6 ml of Trypsin EDTA solution and harvested in phenol-red free DMEM containing 10% FBS-HI, 4 mM Glutamax and counted, spun down and resuspended in the same medium. The cell suspension was added to the wells of 384-well black PDL clear bottom plates at 2.5×10^4 cells/well, 20 μl/well.
(§4) Preparation of Loading Buffer:
(§5) • Loading Buffer: 1 vial of Calcium 5 Bulk Assay reagent was dissolved in 100 ml of 1× HBSS-20 mM Hepes buffer. • Probenecid was resuspended at 1 M in 1 M NaOH. Once the probenecid had gone into solution, an equal volume of H2O was added to make a solution of 500 mM followed by a 1:100 dilution in the Loading Buffer for a working concentration of 5 mM. The pH was adjusted to 7.4 using 1 M NaOH. Loading the Cells with Loading Buffer • Cell plates were removed from the incubator and 25 μl of Loading Buffer containing probenecid (5 mM) added to each well. • Plates were incubated for 1 hour at 37° C. under 5% CO2 in a humidified atmosphere. […] The remaining steps of the assay were carried forward by FLIPR Tetra. A baseline reading was taken at 1-second (s) intervals for 10 s followed by the addition of 5 μl of 10× compounds. The compound-induced fluorescence signal was then measured for 3 minutes with readings taken at 1-s intervals. • The cell plate was removed from the FLIPR and set aside for an additional 17 minutes. • The cell plate was then transferred back to the FLIPR Tetra, along with the 384 well Angiotensin II agonist dilution plate. A baseline reading was taken at 1-second (s) intervals for 10 seconds, followed by the addition of 5.5 μl of 10× Angiotensin II agonist. The agonist-induced fluorescence signal was then measured for 3 minutes with readings taken at 1-s intervals. • Overall, each well in the FLIPR assay was composed of the following components in a total volume of 55.5 μl:
(§6) Time-course results from the FLIPR Calcium 5 assay were expressed as relative fluorescence light units (RFU). The maximum minus minimum values (Max−Min) were used to quantify the strength of the signal. Mean RFU were calculated from replicate values and plotted on the y-axis versus compound concentration on a logarithmic scale on the x-axis, and a single-binding site, four parameter concentration response model: (MIN+((MAX−MIN)/(1+((EC50/x)^Hill)))), was used to perform non-linear regression analysis, generating concentration response curves. Reported parameters included agonist potency EC50 (the concentration causing half-maximal agonist response), antagonist potency IC50 (the concentration causing half-maximal inhibition of the agonist response for antagonist compounds) and efficacy (% MPE: percent of the maximal possible effect).

[2] = target: T1, hAT1R; assay: FLIPR calcium flux assay, Part II: antagonist activity against Angiotensin II; format: cell-based; details: for Emax: read-out: hAT1R Antagonist Efficacy Antag (%) Ave; for IC50: read-out: hAT1R Antagonist IC50 Ave; on hAT1R Antagonist Efficacy Antag (%) Ave: Angiotensin II 10 nM final concentration
Method: as §1, §2, §3, §4, §5, §6

Row | Structure (SMILES) | Emax [1] | Emax [2] | IC50 [2]
1 | CNCC(=O)N[C@@H](CCCNC(=N)N)C(=O)N[C@H](C(=O)N[C@@H](Cc1cccc(O)c1)C(=O)N[C@H](C(=O)N[C@@H](Cc1c[nH]cn1)C(=O)N1CCC[C@H]1C(=O)N[C@H](Cc1ccccc1Cl)C(=O)O)C(C)C)C(C)C [Compound 30, Sar-Arg-Val-(m-Tyr)-Val-His-Pro-(D-Phe(2-Cl))—OH] (HELM PEPTIDE1{[Sar].R.V.[O=C([C@H](Cc1cccc(O)c1)N[*:1])[*:2]].V.H.P.[O=C(O)[C@@H](Cc1ccccc1Cl)N[*:1]]}$$$$V2.0) | 12% | 100% | 20.5 nM
2 | CC(C)[C@H](NC(=O)[C@H](CCCNC(=N)N)NC(=O)CNC[C@H](O)[C@@H](O)[C@H](O)[C@H](O)CO)C(=O)N[C@@H](Cc1ccc(O)cc1)C(=O)N[C@H](C(=O)N[C@@H](Cc1c[nH]cn1)C(=O)N1CCC[C@H]1C(=O)N[C@H](Cc1ccccc1Cl)C(=O)O)C1CCCCC1 [Compound 31, Glac-Arg-Val-Tyr-Chg-His-Pro-(D-Phe(2-Cl))—OH] (H-[X1]RVY[Chg]HP[dPhe(2-Cl)]-OH) | 6% | 99% | 15.7 nM
3 | CC(C)[C@H](NC(=O)[C@H](CCCNC(=N)N)NC(=O)CNC[C@H](O)[C@@H](O)[C@H](O)[C@H](O)CO)C(=O)N[C@@H](Cc1ccc(O)cc1)C(=O)N[C@H](C(=O)N[C@@H](Cc1c[nH]cn1)C(=O)N1CCC[C@H]1C(=O)N[C@H](Cc1ccccc1Cl)C(=O)O)C1CCCC1 [Compound 43, Glac-Arg-Val-Tyr-Cpg-His-Pro-(D-Phe(2-Cl))—OH] (H-[X1]RVY[Gly(cPent)]HP[dPhe(2-Cl)]-OH) | 6% | 100% | 16.6 nM
4 | CC(C)[C@H](NC(=O)[C@H](CCCNC(=N)N)NC(=O)CNC[C@H](O)[C@@H](O)[C@H](O)[C@H](O)CO)C(=O)N[C@@H](Cc1ccc(O)cc1)C(=O)N[C@H](C(=O)N[C@@H](Cc1c[nH]cn1)C(=O)N1CCC[C@H]1C(=O)N[C@H](Cc1cccc2ccccc12)C(=O)O)C1CCCCC1 [Compound 40, Glac-Arg-Val-Tyr-Chg-His-Pro-(D-1Nal)-OH] (H-[X1]RVY[Chg]HP[d1Nal]-OH) | 5% | 101% | 21.9 nM
5 | CNCC(=O)N[C@@H](CCCNC(=N)N)C(=O)N[C@H](C(=O)N[C@@H](Cc1ccc(O)cc1)C(=O)N[C@@H](CCCCN)C(=O)N[C@@H](Cc1c[nH]cn1)C(=O)N1CCC[C@H]1C(=O)N[C@H](Cc1cccc2ccccc12)C(=O)O)C(C)C [Compound 2, Sar-Arg-Val-Tyr-Lys-His-Pro-(D-1Nal)-OH] (HELM PEPTIDE1{[Sar].R.V.Y.K.H.P.[O=C(O)[C@@H](Cc1cccc2ccccc12)N[*:1]]}$$$$V2.0) | 1% | 100% | 16.5 nM
6 | Cc1ccccc1C[C@@H](NC(=O)[C@@H]1CCCN1C(=O)[C@H](Cc1c[nH]cn1)NC(=O)[C@@H](NC(=O)[C@H](Cc1ccc(O)cc1)NC(=O)[C@@H](NC(=O)[C@H](CCCNC(=N)N)NC(=O)CNC[C@H](O)[C@@H](O)[C@H](O)[C@H](O)CO)C(C)C)C1CCCC1)C(=O)O [Compound 44, Glac-Arg-Val-Tyr-Cpg-His-Pro-(D-Phe(2-Me))—OH] (H-[X1]RVY[Gly(cPent)]HP[dPhe(2-Me)]-OH) | 7% | 101% | 20.4 nM

These reach a lower IC50 [2]. Values come first.

Row | Emax [1] | Emax [2] | IC50 [2] | Structure (SMILES)
7 | 5% | 99% | 12.2 nM | CNCC(=O)N[C@@H](CCCNC(=N)N)C(=O)N[C@H](C(=O)N[C@@H](Cc1ccc(O)c(Cl)c1)C(=O)N[C@H](C(=O)N[C@@H](Cc1c[nH]cn1)C(=O)N1CCC[C@H]1C(=O)N[C@H](Cc1ccccc1Cl)C(=O)O)C(C)C)C(C)C [Compound 28, Sar-Arg-Val-Tyr(3-Cl)-Val-His-Pro-(D-Phe(2-Cl))—OH] (HELM PEPTIDE1{[Sar].R.V.[O=C([C@H](Cc1ccc(O)c(Cl)c1)N[*:1])[*:2]].V.H.P.[O=C(O)[C@@H](Cc1ccccc1Cl)N[*:1]]}$$$$V2.0)
8 | 8% | 100% | 14.5 nM | CNCC(=O)N[C@@H](CCCNC(=N)N)C(=O)N[C@H](C(=O)N[C@@H](Cc1ccc(O)cc1)C(=O)N[C@H](C(=O)N[C@@H](Cc1c[nH]cn1)C(=O)N1CCC[C@H]1C(=O)N[C@H](Cc1ccccc1C)C(=O)O)C1CCCCC1)C(C)C [Compound 27, Sar-Arg-Val-Tyr-Chg-His-Pro-(D-Phe(2-Me))—OH] (HELM PEPTIDE1{[Sar].R.V.Y.[O=C([C@@H](N[*:1])C1CCCCC1)[*:2]].H.P.[Cc1ccccc1C[C@@H](N[*:1])C(=O)O]}$$$$V2.0)
9 | 3% | 99% | 10.1 nM | CNCC(=O)N[C@@H](CCCNC(=N)N)C(=O)N[C@H](C(=O)N[C@@H](Cc1ccc(O)cc1)C(=O)N[C@H](C(=O)N[C@@H](Cc1c[nH]cn1)C(=O)N1CCC[C@H]1C(=O)N[C@H](Cc1ccccc1Cl)C(=O)O)C1CCCC1)C(C)C [Compound 18, Sar-Arg-Val-Tyr-Cpg-His-Pro-(D-Phe(2-Cl))—OH] (HELM PEPTIDE1{[Sar].R.V.Y.[O=C([C@@H](N[*:1])C1CCCC1)[*:2]].H.P.[O=C(O)[C@@H](Cc1ccccc1Cl)N[*:1]]}$$$$V2.0)
10 | 2% | 99% | 10.6 nM | CNCC(=O)N[C@@H](CCCNC(=N)N)C(=O)N[C@H](C(=O)N[C@@H](Cc1ccc(O)cc1)C(=O)N[C@H](C(=O)N[C@@H](Cc1c[nH]cn1)C(=O)N1CCC[C@H]1C(=O)N[C@H](Cc1ccccc1Cl)C(=O)O)[C@@H](C)OC)C(C)C [Compound 21, Sar-Arg-Val-Tyr-Thr(Me)-His-Pro-(D-Phe(2-Cl))—OH]
11 | 4% | 98% | 5.2 nM | CNCC(=O)N[C@@H](CCCNC(=N)N)C(=O)N[C@H](C(=O)N[C@@H](Cc1ccc(O)cc1)C(=O)N[C@@H](Cc1cccs1)C(=O)N[C@@H](Cc1c[nH]cn1)C(=O)N1CCC[C@H]1C(=O)N[C@H](Cc1ccccc1Cl)C(=O)O)C(C)C [Compound 23, Sar-Arg-Val-Tyr-(2-Thi)-His-Pro-(D-Phe(2-Cl))—OH] (HELM PEPTIDE1{[Sar].R.V.Y.[O=C([C@H](Cc1cccs1)N[*:1])[*:2]].H.P.[O=C(O)[C@@H](Cc1ccccc1Cl)N[*:1]]}$$$$V2.0)
12 | 5% | 99% | 10.6 nM | CNCC(=O)N[C@@H](CCCNC(=N)N)C(=O)N[C@H](C(=O)N[C@@H](Cc1ccc(O)cc1)C(=O)N[C@H](C(=O)N[C@@H](Cc1c[nH]cn1)C(=O)N1CCC[C@H]1C(=O)N[C@H](Cc1cccc2ccccc12)C(=O)O)C(C)C)C(C)C [Compound 1, Sar-Arg-Val-Tyr-Val-His-Pro-(D-1Nal)-OH] (HELM PEPTIDE1{[Sar].R.V.Y.V.H.P.[O=C(O)[C@@H](Cc1cccc2ccccc12)N[*:1]]}$$$$V2.0)
13 | 25% | 99% | 14.3 nM | CC[C@H](C)[C@H](NC(=O)[C@H](Cc1ccc(O)cc1)NC(=O)[C@@H](NC(=O)[C@H](CCCNC(=N)N)NC(=O)CNC)C(C)C)C(=O)N[C@@H](Cc1c[nH]cn1)C(=O)N1CCC[C@H]1C(=O)N[C@H](Cc1ccccc1)C(=O)O [Ref. Cpd. 2, Sar-Arg-Val-Tyr-Ile-His-Pro-D-Phe-OH, reference compound]
